The DC50 is the midpoint of the concentration-degradation curve. The low end stands for degradation at low concentration, the high end for degradation only at high concentration. By Dmax is commonly meant the largest share of the target that was removed. The low end stands for a partial loss of target, the high end for a fuller loss of target.

These results are taken from US11957759B1, “Rapidly accelerated fibrosarcoma (RAF) degrading compounds and associated methods of use” (Arvinas Operations, Inc., priority 2022, dated 2024).

Assay [1] concerns the target T1, B-RAF V600E (Homo sapiens, UniProt P15056, V600E).
T1 construct: expressed in transfected cells; host or cells: T-Rex 293 cells (Invitrogen #R71007)
In words: Target protein degradation, assay C: T-Rex 293 cells, HA-BRAF_V600E, 384 well format. It counts as cell-based. Conditions: T-Rex 293 HA-BRAF_V600E cells, 24 hours, Examples 83-269; for DC50: Assay C; for Dmax: T-REx-293, Assay C. The gist of the method:
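T-Rex 293 cells stably expressing doxycycline-induced (1 ng/mL) HA-BRAF V600E were treated 24 h at 37 °C with compound (300 nM–5 pM, 11 points, 0.5% DMSO). HA immunofluorescence was quantified by high-content imaging to give DC50 and Dmax (% of control); nuclei counts versus DMSO gauged toxicity.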

Assay [2] addresses T2, B-RAF G466V (Homo sapiens, UniProt P15056, G466V).
T2 construct: expressed in transfected cells; host or cells: T-Rex 293 cells (Invitrogen #R71007)
The experiment in a line: Target protein degradation, assay D: T-Rex 293 cells, HA-BRAF_G466V, 384 well format. It is filed as cell-based. Conditions: T-Rex 293 HA-BRAF_G466V cells, 24 hours, Examples 83-269; for DC50: Assay D; for Dmax: T-REx-293, Assay D. The procedure, abridged: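 T-Rex 293 cells stably expressing doxycycline-induced (1 ng/mL) HA-BRAF G466V treated 24 h at 37 °C with PROTACs, 11-point 1:3 dilution, 300 nM to 5 pM final, 0.5% DMSO. Fixed cells immunostained for HA and imaged by high-content microscopy; DC50 and Dmax (% of control) derived, toxicity from nuclei counts versus DMSO.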

T2 sequence (P15056 whole entry G466V): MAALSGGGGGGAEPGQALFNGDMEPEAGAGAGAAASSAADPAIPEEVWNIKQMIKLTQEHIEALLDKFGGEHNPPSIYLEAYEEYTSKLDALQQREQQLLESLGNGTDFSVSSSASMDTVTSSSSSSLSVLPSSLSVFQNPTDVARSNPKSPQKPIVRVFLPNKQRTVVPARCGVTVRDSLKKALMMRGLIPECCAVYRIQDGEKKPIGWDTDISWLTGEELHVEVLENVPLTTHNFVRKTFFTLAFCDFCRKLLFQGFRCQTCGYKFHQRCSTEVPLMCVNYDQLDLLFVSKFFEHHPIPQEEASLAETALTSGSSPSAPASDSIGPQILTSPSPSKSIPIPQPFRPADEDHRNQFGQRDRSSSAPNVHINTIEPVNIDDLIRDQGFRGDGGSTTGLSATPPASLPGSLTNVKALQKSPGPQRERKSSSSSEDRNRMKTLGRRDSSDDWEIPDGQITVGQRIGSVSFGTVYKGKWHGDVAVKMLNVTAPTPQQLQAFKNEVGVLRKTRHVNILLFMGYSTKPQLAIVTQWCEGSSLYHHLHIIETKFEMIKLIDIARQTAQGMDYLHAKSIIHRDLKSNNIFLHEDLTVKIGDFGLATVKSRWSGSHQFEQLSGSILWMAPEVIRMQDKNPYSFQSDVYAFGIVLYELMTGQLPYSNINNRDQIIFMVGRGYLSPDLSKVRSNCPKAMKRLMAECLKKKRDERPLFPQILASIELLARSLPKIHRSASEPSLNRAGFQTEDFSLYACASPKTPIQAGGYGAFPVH
T1 sequence (P15056 whole entry V600E): as the sequence (P15056 whole entry G466V) above, with V466G, V600E counted along it

With `N#Cc1c(NS(=O)(=O)N2CC[C@@H](F)C2)ccc(F)c1Oc1ccc2ncn(-c3cnc(N4CCC(CN5CC6(C5)CN(c5cccc7c5C(=O)N(C5CCC(=O)NC5=O)C7=O)C6)CC4)nc3)c(=O)c2c1` (stereo partly drawn) [Example 153, (3R)-N-{2-cyano-3-[(3-{2-[4-({6-[2-(2,6-dioxopiperidin-3-yl)-1,3-dioxo-2,3-dihydro-1H-isoindol-4-yl]-2,6-diazaspiro[3.3]heptan-2-yl}methyl)piperidin-1-yl]pyrimidin-5-yl}-4-oxo-3,4-dihydroquinazolin-6-yl)oxy]-4-fluorophenyl}-3-fluoropyrrolidine-1-sulfonamide], the DC50 was 50 to 500 nM in assay [1] and above 30 nM in assay [2]. In assay [1], this compound showed a Dmax of 35 to 70%.

On to `N#Cc1c(NS(=O)(=O)N2CC[C@@H](F)C2)ccc(F)c1Oc1ccc2ncn(-c3cnc(N4CC5(CN(CC6CCN(c7cccc8c7C(=O)N(C7CCC(=O)NC7=O)C8=O)CC6)C5)C4)nc3)c(=O)c2c1` (stereo partly drawn) [Example 154, (3R)-N-{2-cyano-3-[(3-(2-[6-({1-[2-(2,6-dioxopiperidin-3-yl)-1,3-dioxo-2,3-dihydro-1H-isoindol-4-yl]piperidin-4-yl}methyl)-2,6-diazaspiro[3.3]heptan-2-yl]pyrimidin-5-yl}-4-oxo-3,4-dihydroquinazolin-6-yl)oxy]-4-fluorophenyl}-3-fluoropyrrolidine-1-sulfonamide], for which, in assay [1], the DC50 lay in the range of 50 to 500 nM and the maximal degradation (Dmax) was at most 35%. In addition, in assay [2], the DC50 was 10 to 30 nM and the Dmax was at most 35%.

For `N#Cc1c(NS(=O)(=O)N2CC[C@@H](F)C2)ccc(F)c1Oc1ccc2ncn(-c3cnc(N4CCC(C5CN(c6ccc7c(c6)C(=O)N(C6CCC(=O)NC6=O)C7=O)C5)CC4)nc3)c(=O)c2c1` (some centres unmarked) [Example 155], the DC50 in assay [1] is above 500 nM; in assay [2], 1 to 10 nM. For the same compound, the Dmax in assay [2] is at most 35%.

For the compound `N#Cc1c(NS(=O)(=O)N2CC[C@@H](F)C2)ccc(F)c1Oc1ccc2ncn(-c3cnc(N4CCC(CC5CCCN5c5ccc6c(c5)C(=O)N(C5CCC(=O)NC5=O)C6=O)CC4)nc3)c(=O)c2c1` (stereo partly drawn) [Example 156, (3R)-N-{2-cyano-3-[(3-{2-[4-({1-[2-(2,6-dioxopiperidin-3-yl)-1,3-dioxo-2,3-dihydro-1H-isoindol-5-yl]pyrrolidin-2-yl}methyl)piperidin-1-yl]pyrimidin-5-yl}-4-oxo-3,4-dihydroquinazolin-6-yl)oxy]-4-fluorophenyl}-3-fluoropyrrolidine-1-sulfonamide], the DC50 in assay [1] is 50 to 500 nM; in assay [2] it was above 30 nM. The same compound gave a Dmax in assay [1] of 35 to 70%.

In assay [1], `N#Cc1c(NS(=O)(=O)N2CC[C@@H](F)C2)ccc(F)c1Oc1ccc2ncn(-c3ccc(NC4CCN(c5ccc6c(c5)C(=O)N(C5CCC(=O)NC5=O)C6=O)CC4)nc3)c(=O)c2c1` (stereo partly drawn) [Example 157, (3R)-N-[2-cyano-3-({3-[6-({1-[2-(2,6-dioxopiperidin-3-yl)-1,3-dioxo-2,3-dihydro-1H-isoindol-5-yl]piperidin-4-yl}amino)pyridin-3-yl]-4-oxo-3,4-dihydroquinazolin-6-yl}oxy)-4-fluorophenyl]-3-fluoropyrrolidine-1-sulfonamide] gave a half-maximal degradation concentration (DC50) of 50 to 500 nM and a Dmax of 35 to 70%. The DC50 in assay [2] was above 30 nM.

In assay [1], `N#Cc1c(NS(=O)(=O)N2CC[C@@H](F)C2)ccc(F)c1Oc1ccc2ncn(-c3ccc(N4CC(C5CN(c6ccc7c(c6)C(=O)N(C6CCC(=O)NC6=O)C7=O)C5)C4)nc3)c(=O)c2c1` (stereo partly drawn) [Example 158, (3R)-N-(2-cyano-3-{[3-(6-{1'-[2-(2,6-dioxopiperidin-3-yl)-1,3-dioxo-2,3-dihydro-1H-isoindol-5-yl]-[3,3'-biazetidin]-1-yl}pyridin-3-yl)-4-oxo-3,4-dihydroquinazolin-6-yl]oxy}-4-fluorophenyl)-3-fluoropyrrolidine-1-sulfonamide] gave a DC50 of 50 to 500 nM and a Dmax of at most 35%. In addition, in assay [2], the DC50 was at most 1 nM and the Dmax is at most 35%.

As for `N#Cc1c(NS(=O)(=O)N2CC[C@@H](F)C2)ccc(F)c1Oc1ccc2ncn(-c3ccc(N4CC(CC5CN(c6ccc7c(c6)C(=O)N(C6CCC(=O)NC6=O)C7=O)C5)C4)nc3)c(=O)c2c1` (stereo partly drawn) [Example 159, (3R)-N-{2-cyano-3-[(3-{6-[3-({1-[2-(2,6-dioxopiperidin-3-yl)-1,3-dioxo-2,3-dihydro-1H-isoindol-5-yl]azetidin-3-yl}methyl)azetidin-1-yl]pyridin-3-yl}-4-oxo-3,4-dihydroquinazolin-6-yl)oxy]-4-fluorophenyl}-3-fluoropyrrolidine-1-sulfonamide], in assay [1], the 50% degradation concentration (DC50) lay in the range of 50 to 500 nM and the Dmax lay in the range of 35 to 70%. In assay [2], this compound displayed a DC50 of 1 to 10 nM and a Dmax of at most 35%.

In assay [1], `N#Cc1c(NS(=O)(=O)N2CC[C@@H](F)C2)ccc(F)c1Oc1ccc2ncn(-c3ccc(N4CCC(CC5CCCN5c5ccc6c(c5)C(=O)N(C5CCC(=O)NC5=O)C6=O)CC4)nc3)c(=O)c2c1` (stereo partly drawn) [Example 160, (3R)-N-{2-cyano-3-[(3-{6-[4-({1-[2-(2,6-dioxopiperidin-3-yl)-1,3-dioxo-2,3-dihydro-1H-isoindol-5-yl]pyrrolidin-2-yl}methyl)piperidin-1-yl]pyridin-3-yl}-4-oxo-3,4-dihydroquinazolin-6-yl)oxy]-4-fluorophenyl}-3-fluoropyrrolidine-1-sulfonamide] had a DC50 of 50 to 500 nM and a Dmax of at most 35%. Besides, the DC50 in assay [2] was above 30 nM.

For `N#Cc1c(NS(=O)(=O)N2CC[C@@H](F)C2)ccc(F)c1Oc1ccc2ncn(-c3ccc(N4CCN(c5ccc6c(c5)C(=O)N(C5CCC(=O)NC5=O)C6=O)CC4)nc3)c(=O)c2c1` (stereo partly drawn) [Example 161, (3R)-N-(2-cyano-3-{[3-(6-{4-[2-(2,6-dioxopiperidin-3-yl)-1,3-dioxo-2,3-dihydro-1H-isoindol-5-yl]piperazin-1-yl}pyridin-3-yl)-4-oxo-3,4-dihydroquinazolin-6-yl]oxy}-4-fluorophenyl)-3-fluoropyrrolidine-1-sulfonamide], the DC50 is 50 to 500 nM in assay [1] and 1 to 10 nM in assay [2]. Also, the greatest degradation seen (Dmax) in assay [1] is 35 to 70%; in assay [2] it was at most 35%.

In assay [1], `N#Cc1c(NS(=O)(=O)N2CC[C@@H](F)C2)ccc(F)c1Oc1ccc2ncn(-c3ccc(N4CCN(c5ccc(C(=O)NC6CCC(=O)NC6=O)c(F)c5)CC4)nc3)c(=O)c2c1` (stereo partly drawn) [Example 162, 4-[4-(5-{6-[2-cyano-6-fluoro-3-({[(3R)-3-fluoropyrrolidin-1-yl]sulfonyl}amino)phenoxy]-4-oxo-3,4-dihydroquinazolin-3-yl}pyridin-2-yl)piperazin-1-yl]-N-(2,6-dioxopiperidin-3-yl)-2-fluorobenzamide] showed a DC50 of 5 to 50 nM and a Dmax of 35 to 70%. In addition, in assay [2], the DC50 is at most 1 nM and the Dmax is at most 35%.

With `N#Cc1c(NS(=O)(=O)N2CC[C@@H](F)C2)ccc(F)c1Oc1ccc2ncn(-c3ccc(N4CCC(CCN5CCN(c6ccc7c(c6)C(=O)N(C6CCC(=O)NC6=O)C7=O)CC5)CC4)nc3)c(=O)c2c1` (stereo partly drawn) [Example 163, (3R)-N-{2-cyano-3-[(3-{6-[4-(2-{4-[2-(2,6-dioxopiperidin-3-yl)-1,3-dioxo-2,3-dihydro-1H-isoindol-5-yl]piperazin-1-yl}ethyl)piperidin-1-yl]pyridin-3-yl}-4-oxo-3,4-dihydroquinazolin-6-yl)oxy]-4-fluorophenyl}-3-fluoropyrrolidine-1-sulfonamide], the 50% degradation concentration (DC50) in assay [1] lay within 50 to 500 nM; in assay [2], 10 to 30 nM. Also, the results for the Dmax in assay [1] and in assay [2] were 35 to 70% and at most 35%, respectively.

Turning to `N#Cc1c(NS(=O)(=O)N2CC[C@@H](F)C2)ccc(F)c1Oc1ccc2ncn(-c3ccc(N4CCN(CCCOc5ccc6c(c5)C(=O)N(C5CCC(=O)NC5=O)C6=O)CC4)nc3)c(=O)c2c1` (stereo partly drawn) [Example 164, (3R)-N-{2-cyano-3-[(3-{6-[4-(3-{[2-(2,6-dioxopiperidin-3-yl)-1,3-dioxo-2,3-dihydro-1H-isoindol-5-yl]oxy}propyl)piperazin--1-yl]pyridin-3-yl}-4-oxo-3,4-dihydroquinazolin-6-yl)oxy]-4-fluorophenyl}-3-fluoropyrrolidine-1-sulfonamide], the DC50 was 50 to 500 nM in assay [1] and at most 1 nM in assay [2]. Moreover, the Dmax in assay [1] was 35 to 70%; in assay [2], at most 35%.

Regarding `N#Cc1c(NS(=O)(=O)N2CC[C@@H](F)C2)ccc(F)c1Oc1ccc2ncn(-c3ccc(N4CCC5(CC4)CN(c4cccc6c4CN(C4CCC(=O)NC4=O)C6=O)C5)nc3)c(=O)c2c1` (stereo partly drawn) [Example 165, (3R)-N-(2-cyano-3-{[3-(6-{2-[2-(2,6-dioxopiperidin-3-yl)-1-oxo-2,3-dihydro-1H-isoindol-4-yl]-2,7-diazaspiro[3.5]nonan-7-yl}pyridin-3-yl)-4-oxo-3,4-dihydroquinazolin-6-yl]oxy}-4-fluorophenyl)-3-fluoropyrrolidine-1-sulfonamide], in assay [1], the DC50 was at most 5 nM and the Dmax was at most 35%. In assay [2], this compound displayed a DC50 above 30 nM and a Dmax of at most 35%.
